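Following 48 hours of exposure in 96-well plates, responses at five concentrations were used to interpolate endpoints linearly. TGI is the concentration that stops growth completely.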
Assays:
Assay in all cases: NCI anticancer screen, dose series, 48 h
A498 renal = tested on: A498 renal
DLD-1 colon = tested on: DLD-1 colon
DMS 273 small cell lung = tested on: DMS 273 small cell lung
OVCAR-5 ovarian = tested on: OVCAR-5 ovarian
NCI-H23 lung = tested on: NCI-H23 lung
XF 498 CNS = tested on: XF 498 CNS
SK-MEL-28 melanoma = tested on: SK-MEL-28 melanoma
EKVX NSCLC = tested on: EKVX NSCLC
ACHN renal = tested on: ACHN renal
HL-60(TB) leukemia = tested on: HL-60(TB) leukemia
HCC-2998 colon = tested on: HCC-2998 colon
LOX IMVI melanoma = tested on: LOX IMVI melanoma
RPMI-8226 leukemia = tested on: RPMI-8226 leukemia
SN12C renal = tested on: SN12C renal
RXF-631 renal = tested on: RXF-631 renal
SNB-78 CNS = tested on: SNB-78 CNS
CCRF-CEM leukemia = tested on: CCRF-CEM leukemia
SNB-75 CNS = tested on: SNB-75 CNS
OVCAR-8 ovarian = tested on: OVCAR-8 ovarian
HCT-15 colon = tested on: HCT-15 colon
NCI-H226 lung = tested on: NCI-H226 lung
OVCAR-4 ovarian = tested on: OVCAR-4 ovarian
HOP-18 NSCLC = tested on: HOP-18 NSCLC
M19-MEL melanoma = tested on: M19-MEL melanoma
SK-MEL-2 melanoma = tested on: SK-MEL-2 melanoma
LXFL 529 NSCLC = tested on: LXFL 529 NSCLC
OVCAR-3 ovarian = tested on: OVCAR-3 ovarian
NCI-H460 lung = tested on: NCI-H460 lung
SF-268 CNS = tested on: SF-268 CNS
SNB-19 CNS = tested on: SNB-19 CNS
KM20L2 colon = tested on: KM20L2 colon
UACC-257 melanoma = tested on: UACC-257 melanoma
CAKI-1 renal = tested on: CAKI-1 renal
HCT-116 colon = tested on: HCT-116 colon
SF-295 CNS = tested on: SF-295 CNS
786-0 renal = tested on: 786-0 renal
MALME-3M melanoma = tested on: MALME-3M melanoma
IGROV1 ovarian = tested on: IGROV1 ovarian
HOP-62 NSCLC = tested on: HOP-62 NSCLC
SR leukemia = tested on: SR leukemia
DMS 114 small cell lung = tested on: DMS 114 small cell lung
NCI-H522 lung = tested on: NCI-H522 lung
SK-OV-3 ovarian = tested on: SK-OV-3 ovarian
MOLT-4 leukemia = tested on: MOLT-4 leukemia
U251 CNS = tested on: U251 CNS
HOP-92 NSCLC = tested on: HOP-92 NSCLC
HT29 colon = tested on: HT29 colon
UO-31 renal = tested on: UO-31 renal
SW-620 colon = tested on: SW-620 colon
A549 NSCLC = tested on: A549 NSCLC
TK-10 renal = tested on: TK-10 renal
UACC-62 melanoma = tested on: UACC-62 melanoma
K-562 leukemia = tested on: K-562 leukemia
SF-539 CNS = tested on: SF-539 CNS
KM12 colon = tested on: KM12 colon
M14 melanoma = tested on: M14 melanoma
SK-MEL-5 melanoma = tested on: SK-MEL-5 melanoma
COLO 205 colon = tested on: COLO 205 colon
RXF 393 renal = tested on: RXF 393 renal

COC(=O)/C(=N\NC(N)=O)C(C(=O)C(=O)Nc1ccccc1C(=O)OC)c1nc2ccc(C(=O)c3ccccc3)cc2[nH]c1=O (stereo unspecified)
TGI (A498 renal): > 100 µM | TGI (DLD-1 colon): > 100 µM | TGI (DMS 273 small cell lung): > 100 µM | TGI (OVCAR-5 ovarian): > 100 µM | TGI (NCI-H23 lung): > 100 µM | TGI (XF 498 CNS): > 100 µM | TGI (SK-MEL-28 melanoma): > 100 µM | TGI (EKVX NSCLC): > 100 µM | TGI (ACHN renal): > 100 µM | TGI (HL-60(TB) leukemia): > 100 µM | TGI (HCC-2998 colon): > 100 µM | TGI (LOX IMVI melanoma): > 100 µM | TGI (RPMI-8226 leukemia): > 100 µM | TGI (SN12C renal): > 100 µM | TGI (RXF-631 renal): > 100 µM | TGI (SNB-78 CNS): > 100 µM | TGI (CCRF-CEM leukemia): > 100 µM | TGI (SNB-75 CNS): > 100 µM | TGI (OVCAR-8 ovarian): > 100 µM | TGI (HCT-15 colon): > 100 µM | TGI (NCI-H226 lung): > 100 µM | TGI (OVCAR-4 ovarian): > 100 µM | TGI (HOP-18 NSCLC): > 100 µM | TGI (M19-MEL melanoma): > 100 µM | TGI (SK-MEL-2 melanoma): > 100 µM | TGI (LXFL 529 NSCLC): > 100 µM | TGI (OVCAR-3 ovarian): > 100 µM | TGI (NCI-H460 lung): > 100 µM | TGI (SF-268 CNS): > 100 µM | TGI (SNB-19 CNS): > 100 µM | TGI (KM20L2 colon): > 100 µM | TGI (UACC-257 melanoma): > 100 µM | TGI (CAKI-1 renal): > 100 µM | TGI (HCT-116 colon): > 100 µM | TGI (SF-295 CNS): > 100 µM | TGI (786-0 renal): > 100 µM | TGI (MALME-3M melanoma): > 100 µM | TGI (IGROV1 ovarian): > 100 µM | TGI (HOP-62 NSCLC): > 100 µM | TGI (SR leukemia): > 100 µM | TGI (DMS 114 small cell lung): > 100 µM | TGI (NCI-H522 lung): > 100 µM | TGI (SK-OV-3 ovarian): > 100 µM | TGI (MOLT-4 leukemia): > 100 µM | TGI (U251 CNS): > 100 µM | TGI (HOP-92 NSCLC): > 100 µM | TGI (HT29 colon): > 100 µM | TGI (UO-31 renal): > 100 µM | TGI (SW-620 colon): > 100 µM | TGI (A549 NSCLC): > 100 µM | TGI (TK-10 renal): > 100 µM | TGI (UACC-62 melanoma): > 100 µM | TGI (K-562 leukemia): > 100 µM | TGI (SF-539 CNS): > 100 µM | TGI (KM12 colon): > 100 µM | TGI (M14 melanoma): > 100 µM | TGI (SK-MEL-5 melanoma): > 100 µM

CC(=O)Nc1ccccc1S(=O)(=O)c1ccccc1
TGI (A498 renal): > 100 µM | TGI (DLD-1 colon): > 100 µM | TGI (DMS 273 small cell lung): > 100 µM | TGI (OVCAR-5 ovarian): 5.65 µM | TGI (NCI-H23 lung): > 100 µM | TGI (XF 498 CNS): > 100 µM | TGI (SK-MEL-28 melanoma): > 100 µM | TGI (EKVX NSCLC): > 100 µM | TGI (ACHN renal): > 100 µM | TGI (HL-60(TB) leukemia): > 100 µM | TGI (HCC-2998 colon): > 100 µM | TGI (LOX IMVI melanoma): > 100 µM | TGI (RPMI-8226 leukemia): > 100 µM | TGI (SN12C renal): > 100 µM | TGI (RXF-631 renal): > 100 µM | TGI (SNB-78 CNS): > 100 µM | TGI (CCRF-CEM leukemia): > 100 µM | TGI (SNB-75 CNS): > 100 µM | TGI (OVCAR-8 ovarian): > 100 µM | TGI (HCT-15 colon): > 100 µM | TGI (NCI-H226 lung): > 100 µM | TGI (OVCAR-4 ovarian): > 100 µM | TGI (HOP-18 NSCLC): > 100 µM | TGI (M19-MEL melanoma): > 100 µM | TGI (SK-MEL-2 melanoma): > 100 µM | TGI (LXFL 529 NSCLC): > 100 µM | TGI (COLO 205 colon): > 100 µM | TGI (OVCAR-3 ovarian): > 100 µM | TGI (NCI-H460 lung): > 100 µM | TGI (SF-268 CNS): > 100 µM | TGI (SNB-19 CNS): > 100 µM | TGI (KM20L2 colon): > 100 µM | TGI (UACC-257 melanoma): > 100 µM | TGI (CAKI-1 renal): > 100 µM | TGI (HCT-116 colon): > 100 µM | TGI (SF-295 CNS): > 100 µM | TGI (786-0 renal): > 100 µM | TGI (MALME-3M melanoma): > 100 µM | TGI (IGROV1 ovarian): > 100 µM | TGI (HOP-62 NSCLC): > 100 µM | TGI (DMS 114 small cell lung): > 100 µM | TGI (NCI-H522 lung): > 100 µM | TGI (SK-OV-3 ovarian): > 100 µM | TGI (MOLT-4 leukemia): > 100 µM | TGI (U251 CNS): > 100 µM | TGI (HOP-92 NSCLC): > 100 µM | TGI (HT29 colon): > 100 µM | TGI (UO-31 renal): > 100 µM | TGI (SW-620 colon): > 100 µM | TGI (A549 NSCLC): > 100 µM | TGI (TK-10 renal): > 100 µM | TGI (UACC-62 melanoma): > 100 µM | TGI (K-562 leukemia): > 100 µM | TGI (SF-539 CNS): > 100 µM | TGI (KM12 colon): > 100 µM | TGI (M14 melanoma): > 100 µM | TGI (SK-MEL-5 melanoma): > 100 µM | TGI (RXF 393 renal): > 100 µM

Cc1nc2c(o1)C(=Nc1ccccc1)c1ccccc1C2=Nc1ccccc1
TGI (A498 renal): > 100 µM | TGI (DLD-1 colon): > 100 µM | TGI (DMS 273 small cell lung): > 100 µM | TGI (OVCAR-5 ovarian): > 100 µM | TGI (NCI-H23 lung): > 100 µM | TGI (XF 498 CNS): > 100 µM | TGI (EKVX NSCLC): > 100 µM | TGI (ACHN renal): > 100 µM | TGI (HL-60(TB) leukemia): > 100 µM | TGI (HCC-2998 colon): > 100 µM | TGI (LOX IMVI melanoma): > 100 µM | TGI (RPMI-8226 leukemia): > 100 µM | TGI (SN12C renal): > 100 µM | TGI (RXF-631 renal): > 100 µM | TGI (SNB-78 CNS): > 100 µM | TGI (CCRF-CEM leukemia): > 100 µM | TGI (SNB-75 CNS): > 100 µM | TGI (OVCAR-8 ovarian): > 100 µM | TGI (HCT-15 colon): 32 µM | TGI (OVCAR-4 ovarian): > 100 µM | TGI (HOP-18 NSCLC): > 100 µM | TGI (M19-MEL melanoma): > 100 µM | TGI (SK-MEL-2 melanoma): > 100 µM | TGI (LXFL 529 NSCLC): > 100 µM | TGI (COLO 205 colon): > 100 µM | TGI (OVCAR-3 ovarian): > 100 µM | TGI (NCI-H460 lung): > 100 µM | TGI (SF-268 CNS): > 100 µM | TGI (SNB-19 CNS): > 100 µM | TGI (KM20L2 colon): > 100 µM | TGI (UACC-257 melanoma): > 100 µM | TGI (CAKI-1 renal): > 100 µM | TGI (HCT-116 colon): > 100 µM | TGI (SF-295 CNS): > 100 µM | TGI (786-0 renal): > 100 µM | TGI (MALME-3M melanoma): > 100 µM | TGI (IGROV1 ovarian): > 100 µM | TGI (HOP-62 NSCLC): > 100 µM | TGI (DMS 114 small cell lung): > 100 µM | TGI (NCI-H522 lung): > 100 µM | TGI (SK-OV-3 ovarian): > 100 µM | TGI (MOLT-4 leukemia): > 100 µM | TGI (U251 CNS): > 100 µM | TGI (HOP-92 NSCLC): > 100 µM | TGI (HT29 colon): > 100 µM | TGI (UO-31 renal): > 100 µM | TGI (SW-620 colon): 41.3 µM | TGI (A549 NSCLC): > 100 µM | TGI (TK-10 renal): > 100 µM | TGI (UACC-62 melanoma): > 100 µM | TGI (K-562 leukemia): > 100 µM | TGI (SF-539 CNS): > 100 µM | TGI (KM12 colon): > 100 µM | TGI (M14 melanoma): > 100 µM | TGI (SK-MEL-5 melanoma): > 100 µM | TGI (RXF 393 renal): > 100 µM

Source: PubChem BioAssay (NCI)
